How the values were obtained:
[1] = test system: hay bacillus, Escherichia coli, sake yeast, penicillium; test: Antimicrobial action/effect (overall statement); format: cell-based; settings: rank order among Gnetin C, Gnemonocide A, D
[2] = DPPH radical scavenging (antioxidative action) test; format: biochemical; settings: rank order among Gnetin C, Gnemonocide A, D
Protocol: After 6 hours, decreases of absorbance (absorbance difference) at 517 nm of these reaction solutions were measured.

Substance | order of antimicrobial action of the identified ingredients [1] | order of scavenging radical action (antioxidative effect) to DPPH [2]
Gnemonocide A | does not show the antimicrobial action | Gnetin C>Gnemonocide C≈Gnemonocide D>Gnemonocide A
Gnemonocide C | Gnetin C>Gnemonocide C≈Gnemonocide D | Gnetin C>Gnemonocide C≈Gnemonocide D>Gnemonocide A
Gnemonocide D | Gnetin C>Gnemonocide C≈Gnemonocide D | Gnetin C>Gnemonocide C≈Gnemonocide D>Gnemonocide A

Reference: US8067036B2, “Gnetum extract” (Hosoda SHC Inc., priority 2004, dated 2011)
